# Molecular target: T1, SlFKBP12 (Solanum lycopersicum, UniProt A0A3Q7ERC2)
# T1 construct: gene FKBP12
# T1 sequence (A0A3Q7ERC2 1-112): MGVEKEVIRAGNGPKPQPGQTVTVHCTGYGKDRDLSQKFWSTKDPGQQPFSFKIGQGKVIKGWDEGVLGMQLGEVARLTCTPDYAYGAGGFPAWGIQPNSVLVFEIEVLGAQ
# Test: protein gel shifting assay: native vs denatured extracts of treated seedlings, anti-HA immunoblot
# Conditions: 0, 1, 5, 10 uM rapamycin for 24 h on seedlings; indirect read-out of ternary FKBP12-rapamycin-TOR complex (host Arabidopsis TOR)
structure (smiles),measurement,value
CO[C@H]1C[C@@H]2CC[C@@H](C)[C@@](O)(O2)C(=O)C(=O)N2CCCC[C@H]2C(=O)O[C@H]([C@H](C)C[C@@H]2CC[C@@H](O)[C@H](OC)C2)CC(=O)[C@H](C)/C=C(\C)[C@@H](O)[C@@H](OC)C(=O)[C@H](C)C[C@H](C)/C=C/C=C/C=C/1C [rapamycin],"protein gel shifting assay: native vs denatured extracts of treated seedlings, a","with increasing of rapamycin, SlFKBP12 protein level displayed a decline trend in native stage"

# — PMC5114585, “Tomato FK506 Binding Protein 12KD (FKBP12) Mediates the Interaction between Rapamycin and Target of Rapamycin (TOR)” (Frontiers in Plant Science, 2016)
